From ChEMBL document CHEMBL1147101, “Development and persistence of antimicrobial resistance in Pseudomonas aeruginosa: a longitudinal observation in mechanically ventilated patients” (Antimicrob Agents Chemother, 2007)
Calls of active or inactive are those of the source. The rule behind the calls is not given here.

What was measured:
Assay type in all cases: functional, organism-based
Conditions in all cases: Trachea
[1] = tested on: Pseudomonas aeruginosa; assay: Antimicrobial activity against Pseudomonas aeruginosa 65.38-1 tracheal isolates from mechanically ventilated tuberculosis patient
[2] = tested on: Pseudomonas aeruginosa; assay: Antimicrobial activity against Pseudomonas aeruginosa 8B11 tracheal isolates from mechanically ventilated chronic respiratory insufficiency patient
[3] = tested on: Pseudomonas aeruginosa; assay: Antimicrobial activity against Pseudomonas aeruginosa 3D1 tracheal isolates from mechanically ventilated chronic respiratory insufficiency patient
[4] = tested on: Pseudomonas aeruginosa; assay: Antimicrobial activity against Pseudomonas aeruginosa P21.21 tracheal isolates from mechanically ventilated tuberculosis patient
[5] = tested on: Pseudomonas aeruginosa; assay: Antimicrobial activity against Pseudomonas aeruginosa 2C1 tracheal isolates from mechanically ventilated tuberculosis patient
[6] = tested on: Pseudomonas aeruginosa; assay: Antimicrobial activity against Pseudomonas aeruginosa 65.68-1 tracheal isolates from mechanically ventilated tuberculosis patient
[7] = tested on: Pseudomonas aeruginosa; assay: Antimicrobial activity against Pseudomonas aeruginosa 65.36-3 tracheal isolates from mechanically ventilated tuberculosis patient
[8] = tested on: Pseudomonas aeruginosa; assay: Antimicrobial activity against Pseudomonas aeruginosa 10B3 tracheal isolates from mechanically ventilated chronic respiratory insufficiency patient
[9] = tested on: Pseudomonas aeruginosa; assay: Antimicrobial activity against Pseudomonas aeruginosa 19C7 tracheal isolates from mechanically ventilated chronic respiratory insufficiency patient
[10] = tested on: Pseudomonas aeruginosa; assay: Antimicrobial activity against Pseudomonas aeruginosa P21.23 tracheal isolates from mechanically ventilated tuberculosis patient
[11] = tested on: Pseudomonas aeruginosa; assay: Antimicrobial activity against Pseudomonas aeruginosa 5F8 tracheal isolates from mechanically ventilated chronic respiratory insufficiency patient
[12] = tested on: Pseudomonas aeruginosa; assay: Antimicrobial activity against Pseudomonas aeruginosa 16D5 tracheal isolates from mechanically ventilated chronic respiratory insufficiency patient
[13] = tested on: Pseudomonas aeruginosa; assay: Antimicrobial activity against Pseudomonas aeruginosa 22D2 tracheal isolates from mechanically ventilated chronic respiratory insufficiency patient
[14] = tested on: Pseudomonas aeruginosa; assay: Antimicrobial activity against Pseudomonas aeruginosa 3B1 tracheal isolates from mechanically ventilated tuberculosis patient
[15] = tested on: Pseudomonas aeruginosa; assay: Antimicrobial activity against Pseudomonas aeruginosa 24G1 tracheal isolates from mechanically ventilated chronic respiratory insufficiency patient
[16] = tested on: Pseudomonas aeruginosa; assay: Antimicrobial activity against Pseudomonas aeruginosa 22D6 tracheal isolates from mechanically ventilated chronic respiratory insufficiency patient
[17] = tested on: Pseudomonas aeruginosa; assay: Antimicrobial activity against Pseudomonas aeruginosa 9B5 tracheal isolates from mechanically ventilated chronic respiratory insufficiency patient
[18] = tested on: Pseudomonas aeruginosa; assay: Antimicrobial activity against Pseudomonas aeruginosa 8C4 tracheal isolates from mechanically ventilated chronic respiratory insufficiency patient
[19] = tested on: Pseudomonas aeruginosa; assay: Antimicrobial activity against Pseudomonas aeruginosa 3E2 tracheal isolates from mechanically ventilated chronic respiratory insufficiency patient
[20] = tested on: Pseudomonas aeruginosa; assay: Antimicrobial activity against Pseudomonas aeruginosa 19B3 tracheal isolates from mechanically ventilated chronic respiratory insufficiency patient
[21] = tested on: Pseudomonas aeruginosa; assay: Antimicrobial activity against Pseudomonas aeruginosa 9A7 tracheal isolates from mechanically ventilated chronic respiratory insufficiency patient
[22] = tested on: Pseudomonas aeruginosa; assay: Antimicrobial activity against Pseudomonas aeruginosa 2C2 tracheal isolates from mechanically ventilated tuberculosis patient
[23] = tested on: Pseudomonas aeruginosa; assay: Antimicrobial activity against Pseudomonas aeruginosa 8A12 tracheal isolates from mechanically ventilated chronic respiratory insufficiency patient
[24] = tested on: Pseudomonas aeruginosa; assay: Antimicrobial activity against Pseudomonas aeruginosa 65.68-4 tracheal isolates from mechanically ventilated tuberculosis patient
[25] = tested on: Pseudomonas aeruginosa; assay: Antimicrobial activity against Pseudomonas aeruginosa 10A6 tracheal isolates from mechanically ventilated chronic respiratory insufficiency patient
[26] = tested on: Pseudomonas aeruginosa; assay: Antimicrobial activity against Pseudomonas aeruginosa 1B9 tracheal isolates from mechanically ventilated tuberculosis patient
[27] = tested on: Pseudomonas aeruginosa; assay: Antimicrobial activity against Pseudomonas aeruginosa 19E2 tracheal isolates from mechanically ventilated chronic respiratory insufficiency patient
[28] = tested on: Pseudomonas aeruginosa; assay: Antimicrobial activity against Pseudomonas aeruginosa 2A2 tracheal isolates from mechanically ventilated tuberculosis patient
[29] = tested on: Pseudomonas aeruginosa; assay: Antimicrobial activity against Pseudomonas aeruginosa 22D9 tracheal isolates from mechanically ventilated chronic respiratory insufficiency patient
[30] = tested on: Pseudomonas aeruginosa; assay: Antimicrobial activity against Pseudomonas aeruginosa 22E1 tracheal isolates from mechanically ventilated chronic respiratory insufficiency patient
[31] = tested on: Pseudomonas aeruginosa; assay: Antimicrobial activity against Pseudomonas aeruginosa 29G6 tracheal isolates from mechanically ventilated chronic respiratory insufficiency patient
[32] = tested on: Pseudomonas aeruginosa; assay: Antimicrobial activity against Pseudomonas aeruginosa 65.36-4 tracheal isolates from mechanically ventilated tuberculosis patient
[33] = tested on: Pseudomonas aeruginosa; assay: Antimicrobial activity against Pseudomonas aeruginosa 2A3 tracheal isolates from mechanically ventilated tuberculosis patient
[34] = tested on: Pseudomonas aeruginosa; assay: Antimicrobial activity against Pseudomonas aeruginosa 5G3 tracheal isolates from mechanically ventilated chronic respiratory insufficiency patient
[35] = tested on: Pseudomonas aeruginosa; assay: Antimicrobial activity against Pseudomonas aeruginosa 65.18-4 tracheal isolates from mechanically ventilated tuberculosis patient
[36] = tested on: Pseudomonas aeruginosa; assay: Antimicrobial activity against Pseudomonas aeruginosa 24E5 tracheal isolates from mechanically ventilated chronic respiratory insufficiency patient
[37] = tested on: Pseudomonas aeruginosa; assay: Antimicrobial activity against Pseudomonas aeruginosa 13E1 tracheal isolates from mechanically ventilated chronic respiratory insufficiency patient
[38] = tested on: Pseudomonas aeruginosa; assay: Antimicrobial activity against Pseudomonas aeruginosa 10A9 tracheal isolates from mechanically ventilated chronic respiratory insufficiency patient
[39] = tested on: Pseudomonas aeruginosa; assay: Antimicrobial activity against Pseudomonas aeruginosa 9A1 tracheal isolates from mechanically ventilated chronic respiratory insufficiency patient
[40] = tested on: Pseudomonas aeruginosa; assay: Antimicrobial activity against Pseudomonas aeruginosa 29G7 tracheal isolates from mechanically ventilated chronic respiratory insufficiency patient
[41] = tested on: Pseudomonas aeruginosa; assay: Antimicrobial activity against Pseudomonas aeruginosa 2A7 tracheal isolates from mechanically ventilated tuberculosis patient
[42] = tested on: Pseudomonas aeruginosa; assay: Antimicrobial activity against Pseudomonas aeruginosa 15G2 tracheal isolates from mechanically ventilated chronic respiratory insufficiency patient
[43] = tested on: Pseudomonas aeruginosa; assay: Antimicrobial activity against Pseudomonas aeruginosa 29G8 tracheal isolates from mechanically ventilated chronic respiratory insufficiency patient
[44] = tested on: Pseudomonas aeruginosa; assay: Antimicrobial activity against Pseudomonas aeruginosa 10B1 tracheal isolates from mechanically ventilated chronic respiratory insufficiency patient
[45] = tested on: Pseudomonas aeruginosa; assay: Antimicrobial activity against Pseudomonas aeruginosa 65.68-3 tracheal isolates from mechanically ventilated tuberculosis patient
[46] = tested on: Pseudomonas aeruginosa; assay: Antimicrobial activity against Pseudomonas aeruginosa 19B6 tracheal isolates from mechanically ventilated chronic respiratory insufficiency patient
[47] = tested on: Pseudomonas aeruginosa; assay: Antimicrobial activity against Pseudomonas aeruginosa 29F6 tracheal isolates from mechanically ventilated chronic respiratory insufficiency patient
[48] = tested on: Pseudomonas aeruginosa; assay: Antimicrobial activity against Pseudomonas aeruginosa 65.68-2 tracheal isolates from mechanically ventilated tuberculosis patient
[49] = tested on: Pseudomonas aeruginosa; assay: Antimicrobial activity against Pseudomonas aeruginosa 2F6 tracheal isolates from mechanically ventilated tuberculosis patient
[50] = tested on: Pseudomonas aeruginosa; assay: Antimicrobial activity against Pseudomonas aeruginosa 5F2 tracheal isolates from mechanically ventilated chronic respiratory insufficiency patient
[51] = tested on: Pseudomonas aeruginosa; assay: Antimicrobial activity against Pseudomonas aeruginosa 2A6 tracheal isolates from mechanically ventilated tuberculosis patient
[52] = tested on: Pseudomonas aeruginosa; assay: Antimicrobial activity against Pseudomonas aeruginosa 9A10 tracheal isolates from mechanically ventilated chronic respiratory insufficiency patient
[53] = tested on: Pseudomonas aeruginosa; assay: Antimicrobial activity against Pseudomonas aeruginosa 2A9 tracheal isolates from mechanically ventilated tuberculosis patient
[54] = tested on: Pseudomonas aeruginosa; assay: Antimicrobial activity against Pseudomonas aeruginosa 22E3 tracheal isolates from mechanically ventilated chronic respiratory insufficiency patient
[55] = tested on: Pseudomonas aeruginosa; assay: Antimicrobial activity against Pseudomonas aeruginosa 65.33-1 tracheal isolates from mechanically ventilated tuberculosis patient

## NCC[C@H](O)C(=O)N[C@@H]1C[C@H](N)[C@@H](O[C@H]2O[C@H](CN)[C@@H](O)[C@H](O)[C@H]2O)[C@H](O)[C@H]1O[C@H]1O[C@H](CO)[C@@H](O)[C@H](N)[C@H]1O
[1]
  Activity: inactive
[2]
  Activity: Active
[3]
  Activity: Active
[4]
  Activity: Active
[5]
  Activity: inactive
[6]
  Activity: Active
[7]
  Activity: inactive
[8]
  Activity: Active
[9]
  Activity: Active
[10]
  Activity: Active
[11]
  Activity: Active
[12]
  Activity: Active
[13]
  Activity: Active
[14]
  Activity: Active
[15]
  Activity: Active
[16]
  Activity: Active
[17]
  Activity: Active
[18]
  Activity: Active
[19]
  Activity: Active
[20]
  Activity: Active
[21]
  Activity: Active
[22]
  Activity: Active
[23]
  Activity: Active
[24]
  Activity: Active
[25]
  Activity: Active
[26]
  Activity: inactive
[27]
  Activity: Active
[28]
  Activity: Active
[29]
  Activity: Active
[30]
  Activity: Active
[31]
  Activity: Active
[32]
  Activity: inactive
[33]
  Activity: Active
[34]
  Activity: Active
[35]
  Activity: Active
[36]
  Activity: Active
[37]
  Activity: Active
[38]
  Activity: Active
[39]
  Activity: Active
[40]
  Activity: Active
[41]
  Activity: inactive
[42]
  Activity: Active
[43]
  Activity: Active
[44]
  Activity: Active
[45]
  Activity: Active
[46]
  Activity: Active
[47]
  Activity: Active
[48]
  Activity: Active
[49]
  Activity: inactive
[50]
  Activity: Active
[51]
  Activity: inactive
[52]
  Activity: Active
[53]
  Activity: inactive
[54]
  Activity: Active
[55]
  Activity: Active
